What was measured:
Format in all cases: in vivo
[1] = test system: green peach aphid (Myzus persicae); assay: Watering test on cabbage plant, green peach aphid (Use Example 5); settings: infection 3 d after application, 7 d after infection
Procedure: (§1) After sowing, a cabbage plant (Brassica oleracea) is grown for about 10 days in a 1 litre vessel. The plant is then watered with 60 ml of a solution having the stated concentration of insecticidally active compound and adjuvant and, after the stated period of time, infected with the green peach aphid (Myzus persicae). After the desired period of time, the kill in % is determined. 100% means that all aphids have been killed; 0% means that none of the aphids have been killed. The same test without added adjuvant served as a control.

[2] = test system: green peach aphid (Myzus persicae); assay: Watering test on bell-pepper plant, green peach aphid (Use Example 3)
Procedure: as §1, with “a bell-pepper” for “a cabbage”, “plant” for “plant (Brassica oleracea)”, “about 30” for “about 10”

[3] = test system: diamond-back moth (Plutella xylostella); assay: Watering test on cabbage plant, diamond-back moth caterpillars (Use Example 4); settings: infection 1 d after application, 7 d after infection
Procedure: as §1, with “about 14” for “about 10”, “the caterpillars of the diamond-back moth (Plutella xylostella).” for “the green peach aphid (Myzus persicae).”, “all caterpillars” for “all aphids”, “the caterpillars” for “the aphids”

O=[N+]([O-])NC1=NCCN1Cc1ccc(Cl)nc1 [(II-7), imidacloprid]
Mortality ([1]; 0.00195 mg/l of soil, adjuvant (I-2) 1000 mg/l): B (from 26 to 50%)
Mortality ([1]; 0.00195 mg/l of soil, no adjuvant): A (from 0 to 25%)
Mortality ([1]; 0.0039 mg/l of soil, adjuvant (I-2) 1000 mg/l): C (from 51 to 75%)
Mortality ([1]; 0.0039 mg/l of soil, no adjuvant): B (from 26 to 50%)
Mortality ([2]; 0.0039 mg/l of soil, adjuvant (I-2) 1000 mg/l, infection 3 d after application, 7 d after infection): D (from 76 to 100)
Mortality ([2]; 0.0039 mg/l of soil, adjuvant (I-3) 2000 mg/l watering solution, infection 3 d after application, 4 d after infection): D (from 76 to 100)
Mortality ([2]; 0.0039 mg/l of soil, adjuvant (I-3) 2000 mg/l, infection 3 d after application, 7 d after infection): D (from 76 to 100)
Mortality ([2]; 0.0039 mg/l of soil, adjuvant (I-3) 2000 mg/l, infection 21 d after application, 4 d after infection): D (from 76 to 100)
Mortality ([2]; 0.0039 mg/l of soil, adjuvant (I-3) 2000 mg/l, infection 21 d after application, 7 d after infection): D (from 76 to 100)
Mortality ([2]; 0.0039 mg/l of soil, adjuvant (I-5) 2000 mg/l watering solution, infection 3 d after application, 4 d after infection): D (from 76 to 100)
Mortality ([2]; 0.0039 mg/l of soil, adjuvant (I-5) 2000 mg/l, infection 3 d after application, 7 d after infection): D (from 76 to 100)
Mortality ([2]; 0.0039 mg/l of soil, adjuvant (I-5) 2000 mg/l, infection 21 d after application, 4 d after infection): D (from 76 to 100)
Mortality ([2]; 0.0039 mg/l of soil, adjuvant (I-5) 2000 mg/l, infection 21 d after application, 7 d after infection): D (from 76 to 100)
Mortality ([2]; 0.0039 mg/l of soil, no adjuvant, infection 3 d after application, 4 d after infection): B (from 26 to 50%)
Mortality ([2]; 0.0039 mg/l of soil, no adjuvant, infection 3 d after application, 7 d after infection): C (from 51 to 75%)
Mortality ([2]; 0.0039 mg/l of soil, no adjuvant, infection 21 d after application, 4 d after infection): C (from 51 to 75%)
Mortality ([2]; 0.0039 mg/l of soil, no adjuvant, infection 21 d after application, 7 d after infection): C (from 51 to 75%)

CN(Cc1ccc(Cl)nc1)C1=CC(=O)OC1 [(IV-1)]
Mortality ([2]; 0.0156 mg/l of soil, adjuvant (I-3) 2000 mg/l, infection 13 d after application, 5 d after infection): D (from 76 to 100)
Mortality ([2]; 0.0156 mg/l of soil, adjuvant (I-3) 2000 mg/l, infection 13 d after application, 7 d after infection): D (from 76 to 100)
Mortality ([2]; 0.0156 mg/l of soil, adjuvant (I-5) 2000 mg/l, infection 13 d after application, 5 d after infection): D (from 76 to 100)
Mortality ([2]; 0.0156 mg/l of soil, adjuvant (I-5) 2000 mg/l, infection 13 d after application, 7 d after infection): D (from 76 to 100)
Mortality ([2]; 0.0156 mg/l of soil, no adjuvant, infection 13 d after application, 5 d after infection): C (from 51 to 75%)
Mortality ([2]; 0.0156 mg/l of soil, no adjuvant, infection 13 d after application, 7 d after infection): C (from 51 to 75%)
Mortality ([2]; 0.0313 mg/l of soil, adjuvant (I-3) 2000 mg/l, infection 7 d after application, 4 d after infection): D (from 76 to 100)
Mortality ([2]; 0.0313 mg/l of soil, adjuvant (I-3) 2000 mg/l, infection 7 d after application, 6 d after infection): D (from 76 to 100)
Mortality ([2]; 0.0313 mg/l of soil, adjuvant (I-5) 2000 mg/l, infection 7 d after application, 4 d after infection): D (from 76 to 100)
Mortality ([2]; 0.0313 mg/l of soil, adjuvant (I-5) 2000 mg/l, infection 7 d after application, 6 d after infection): D (from 76 to 100)
Mortality ([2]; 0.0313 mg/l of soil, no adjuvant, infection 7 d after application, 4 d after infection): C (from 51 to 75%)
Mortality ([2]; 0.0313 mg/l of soil, no adjuvant, infection 7 d after application, 6 d after infection): C (from 51 to 75%)

CCOC(=O)OC1=C(c2cc(C)ccc2C)C(=O)NC12CCC(OC)CC2 (centres unmarked) [(V-3)]
Mortality ([2]; 2 mg/l of soil, adjuvant (I-5) 1000 mg/l, infection 3 d after application, 7 d after infection): C (from 51 to 75%)
Mortality ([2]; 2 mg/l of soil, adjuvant (I-5) 1000 mg/l, infection 5 d after application, 7 d after infection): C (from 51 to 75%)
Mortality ([2]; 2 mg/l of soil, no adjuvant, infection 3 d after application, 7 d after infection): B (from 26 to 50%)
Mortality ([2]; 2 mg/l of soil, no adjuvant, infection 5 d after application, 7 d after infection): B (from 26 to 50%)

N#Cc1nn(-c2c(Cl)cc(C(F)(F)F)cc2Cl)c(N)c1[S+]([O-])C(F)(F)F (centres unmarked) [(VI-1), fipronil]
Mortality ([3]; 1 mg/l of soil, adjuvant (I-3) 1000 mg/l): B (from 26 to 50%)
Mortality ([3]; 1 mg/l of soil, adjuvant (I-5) 1000 mg/l): C (from 51 to 75%)
Mortality ([3]; 1 mg/l of soil, no adjuvant): A (from 0 to 25%)
Mortality ([3]; 5 mg/l of soil, adjuvant (I-3) 1000 mg/l): D (from 76 to 100)
Mortality ([3]; 5 mg/l of soil, no adjuvant): C (from 51 to 75%)
